According to ChEMBL document CHEMBL4507297, “Data for DCP probe PF-04457845” (2021):

Columns and labels:
[1] = biological target: Non-receptor tyrosine-protein kinase TYK2 (Homo sapiens) (UniProt P29597); settings: Compound concentration 1000.0 nM
[2] = biological target: Tyrosine-protein kinase Lck (Homo sapiens) (UniProt P06239); settings: Compound concentration 1000.0 nM
[3] = biological target: T1, Muscarinic acetylcholine receptor M1 (Homo sapiens) (UniProt P11229); settings: Compound concentration 10.0 uM
T1 sequence (whole entry): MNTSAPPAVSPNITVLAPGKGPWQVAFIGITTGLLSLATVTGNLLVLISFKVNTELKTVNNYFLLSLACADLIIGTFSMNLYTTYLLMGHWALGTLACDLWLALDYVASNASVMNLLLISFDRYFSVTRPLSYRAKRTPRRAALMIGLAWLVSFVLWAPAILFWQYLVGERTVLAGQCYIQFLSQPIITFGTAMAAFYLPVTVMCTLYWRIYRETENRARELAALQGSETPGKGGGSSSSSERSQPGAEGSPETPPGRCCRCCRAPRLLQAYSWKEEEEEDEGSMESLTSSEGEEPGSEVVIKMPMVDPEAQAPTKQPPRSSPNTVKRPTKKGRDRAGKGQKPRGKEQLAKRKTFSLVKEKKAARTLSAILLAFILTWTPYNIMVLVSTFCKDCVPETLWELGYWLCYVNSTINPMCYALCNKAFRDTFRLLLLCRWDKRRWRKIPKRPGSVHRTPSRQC

[4] = biological target: Serine/threonine-protein kinase MAK (Homo sapiens) (UniProt P20794); settings: Compound concentration 1000.0 nM
[5] = tested on: Receptor-type tyrosine-protein kinase FLT3 (Homo sapiens), P36888 [UNDEFINED MUTATION]; settings: Compound concentration 1000.0 nM
[6] = biological target: Mitogen-activated protein kinase kinase kinase 3 (Homo sapiens) (UniProt Q99759); settings: Compound concentration 1000.0 nM
[7] = biological target: Mitogen-activated protein kinase kinase kinase 7 (Homo sapiens) (UniProt O43318); settings: Compound concentration 1000.0 nM
[8] = biological target: Serine/threonine-protein kinase RIO1 (Homo sapiens) (UniProt Q9BRS2); settings: Compound concentration 1000.0 nM
[9] = tested on: Tyrosine-protein kinase ABL1 (Homo sapiens), P00519 [T315I]; settings: Compound concentration 1000.0 nM
[10] = biological target: Casein kinase I isoform delta (Homo sapiens) (UniProt P48730); settings: Compound concentration 1000.0 nM
[11] = tested on: Hepatocyte growth factor receptor (Homo sapiens), P08581 [Y1235D]; settings: Compound concentration 1000.0 nM
[12] = biological target: Tyrosine-protein kinase CSK (Homo sapiens) (UniProt P41240); settings: Compound concentration 1000.0 nM
[13] = biological target: Receptor-type tyrosine-protein kinase FLT3 (Homo sapiens) (UniProt P36888); settings: Compound concentration 1000.0 nM
[14] = biological target: Dual specificity mitogen-activated protein kinase kinase 1 (Homo sapiens) (UniProt Q02750); settings: Compound concentration 1000.0 nM
[15] = tested on: Fibroblast growth factor receptor 3 (Homo sapiens), P22607 [G697C]; settings: Compound concentration 1000.0 nM
[16] = biological target: Activin receptor type-2A (Homo sapiens) (UniProt P27037); settings: Compound concentration 1000.0 nM
[17] = tested on: Epidermal growth factor receptor (Homo sapiens), P00533 [UNDEFINED MUTATION]; settings: Compound concentration 1000.0 nM
[18] = biological target: Serine/threonine-protein kinase PLK1 (Homo sapiens) (UniProt P53350); settings: Compound concentration 1000.0 nM
[19] = biological target: Phosphatidylinositol 4,5-bisphosphate 3-kinase catalytic subunit gamma isoform (Homo sapiens) (UniProt P48736); settings: Compound concentration 1000.0 nM
[20] = biological target: Rhodopsin kinase GRK7 (Homo sapiens) (UniProt Q8WTQ7); settings: Compound concentration 1000.0 nM
[21] = biological target: T2, 5-hydroxytryptamine receptor 2C (Homo sapiens) (UniProt P28335); settings: Compound concentration 10.0 uM
T2 sequence (whole entry): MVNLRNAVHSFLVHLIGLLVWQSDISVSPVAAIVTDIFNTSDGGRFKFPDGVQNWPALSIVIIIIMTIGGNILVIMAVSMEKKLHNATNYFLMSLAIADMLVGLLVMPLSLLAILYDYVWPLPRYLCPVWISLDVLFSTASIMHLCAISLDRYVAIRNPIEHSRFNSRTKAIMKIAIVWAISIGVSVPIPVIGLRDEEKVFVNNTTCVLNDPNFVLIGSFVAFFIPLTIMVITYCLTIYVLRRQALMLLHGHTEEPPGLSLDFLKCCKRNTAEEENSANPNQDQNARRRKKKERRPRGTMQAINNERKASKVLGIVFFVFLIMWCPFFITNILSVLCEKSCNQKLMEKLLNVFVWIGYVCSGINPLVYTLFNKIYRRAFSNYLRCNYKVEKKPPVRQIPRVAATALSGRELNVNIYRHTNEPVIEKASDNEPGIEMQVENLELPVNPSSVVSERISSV

[22] = biological target: MAP/microtubule affinity-regulating kinase 3 (Homo sapiens) (UniProt P27448); settings: Compound concentration 1000.0 nM
[23] = biological target: Mitogen-activated protein kinase 10 (Homo sapiens) (UniProt P53779); settings: Compound concentration 1000.0 nM
[24] = biological target: Serine/threonine-protein kinase OSR1 (Homo sapiens) (UniProt O95747); settings: Compound concentration 1000.0 nM
[25] = biological target: Ribosomal protein S6 kinase beta-1 (Homo sapiens) (UniProt P23443); settings: Compound concentration 1000.0 nM
[26] = biological target: Serine/threonine-protein kinase D3 (Homo sapiens) (UniProt O94806); settings: Compound concentration 1000.0 nM
[27] = biological target: Glycogen synthase kinase-3 beta (Homo sapiens) (UniProt P49841); settings: Compound concentration 1000.0 nM
[28] = biological target: Activin receptor type-1-like (Homo sapiens) (UniProt P37023); settings: Compound concentration 1000.0 nM
[29] = biological target: Mitogen-activated protein kinase kinase kinase 2 (Homo sapiens) (UniProt Q9Y2U5); settings: Compound concentration 1000.0 nM
[30] = biological target: Hormonally up-regulated neu tumor-associated kinase (Homo sapiens) (UniProt P57058); settings: Compound concentration 1000.0 nM
[31] = biological target: Beta-adrenergic receptor kinase 1 (Homo sapiens) (UniProt P25098); settings: Compound concentration 1000.0 nM
[32] = biological target: Mitogen-activated protein kinase kinase kinase 12 (Homo sapiens) (UniProt Q12852); settings: Compound concentration 1000.0 nM
[33] = biological target: Protein kinase C iota type (Homo sapiens) (UniProt P41743); settings: Compound concentration 1000.0 nM
Protein kinase C iota type (Homo sapiens), sequence (P41743 whole entry): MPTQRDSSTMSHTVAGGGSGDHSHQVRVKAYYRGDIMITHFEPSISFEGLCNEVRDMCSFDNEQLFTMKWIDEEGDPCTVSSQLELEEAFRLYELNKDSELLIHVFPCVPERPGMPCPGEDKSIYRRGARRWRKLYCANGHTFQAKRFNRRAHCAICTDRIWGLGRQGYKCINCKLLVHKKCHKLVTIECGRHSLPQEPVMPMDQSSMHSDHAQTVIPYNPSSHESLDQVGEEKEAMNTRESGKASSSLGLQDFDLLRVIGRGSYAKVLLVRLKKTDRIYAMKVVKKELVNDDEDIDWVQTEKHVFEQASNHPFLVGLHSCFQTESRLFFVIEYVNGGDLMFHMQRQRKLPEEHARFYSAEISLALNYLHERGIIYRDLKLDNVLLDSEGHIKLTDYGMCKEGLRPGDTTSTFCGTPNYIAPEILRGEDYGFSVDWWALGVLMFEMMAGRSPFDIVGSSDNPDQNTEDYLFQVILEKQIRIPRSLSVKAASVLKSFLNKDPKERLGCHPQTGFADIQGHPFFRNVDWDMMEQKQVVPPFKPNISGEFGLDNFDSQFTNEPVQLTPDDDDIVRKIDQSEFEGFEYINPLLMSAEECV

Beta-adrenergic receptor kinase 1 (Homo sapiens), sequence (P25098 whole entry): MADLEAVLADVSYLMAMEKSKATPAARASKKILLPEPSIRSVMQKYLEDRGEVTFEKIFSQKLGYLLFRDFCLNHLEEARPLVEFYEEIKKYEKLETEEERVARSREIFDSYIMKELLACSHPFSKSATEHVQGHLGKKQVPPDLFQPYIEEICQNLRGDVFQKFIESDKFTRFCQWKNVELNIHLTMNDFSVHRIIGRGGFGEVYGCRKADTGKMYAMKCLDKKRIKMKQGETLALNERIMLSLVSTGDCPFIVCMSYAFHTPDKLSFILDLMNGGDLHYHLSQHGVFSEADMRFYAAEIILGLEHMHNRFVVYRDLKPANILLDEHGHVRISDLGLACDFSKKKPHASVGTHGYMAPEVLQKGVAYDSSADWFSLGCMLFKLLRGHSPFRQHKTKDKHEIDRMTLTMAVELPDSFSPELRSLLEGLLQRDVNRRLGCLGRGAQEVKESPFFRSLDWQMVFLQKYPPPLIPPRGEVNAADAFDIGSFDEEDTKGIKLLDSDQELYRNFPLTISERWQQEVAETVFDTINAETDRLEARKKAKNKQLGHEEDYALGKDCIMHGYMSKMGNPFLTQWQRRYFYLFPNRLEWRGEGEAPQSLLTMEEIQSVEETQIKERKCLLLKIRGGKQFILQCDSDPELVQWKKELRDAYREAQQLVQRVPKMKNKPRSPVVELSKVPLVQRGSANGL
Ribosomal protein S6 kinase beta-1 (Homo sapiens), sequence (P23443 whole entry, looked up): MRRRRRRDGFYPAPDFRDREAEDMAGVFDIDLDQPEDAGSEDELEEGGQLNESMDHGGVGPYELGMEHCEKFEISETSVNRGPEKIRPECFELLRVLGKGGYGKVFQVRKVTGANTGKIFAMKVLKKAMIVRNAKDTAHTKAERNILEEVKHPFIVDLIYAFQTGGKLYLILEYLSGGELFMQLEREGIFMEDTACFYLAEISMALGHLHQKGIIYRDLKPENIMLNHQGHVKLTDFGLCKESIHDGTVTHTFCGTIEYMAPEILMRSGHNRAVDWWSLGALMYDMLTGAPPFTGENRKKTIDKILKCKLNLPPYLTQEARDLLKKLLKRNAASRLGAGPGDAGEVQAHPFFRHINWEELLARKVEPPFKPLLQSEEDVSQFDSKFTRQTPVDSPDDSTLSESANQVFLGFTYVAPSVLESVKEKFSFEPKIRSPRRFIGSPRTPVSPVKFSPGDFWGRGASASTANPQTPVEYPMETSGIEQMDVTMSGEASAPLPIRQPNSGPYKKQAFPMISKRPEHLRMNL
Epidermal growth factor receptor (Homo sapiens), P00533 [UNDEFINED MUTATION], sequence (P00533 whole entry, looked up, change not shown): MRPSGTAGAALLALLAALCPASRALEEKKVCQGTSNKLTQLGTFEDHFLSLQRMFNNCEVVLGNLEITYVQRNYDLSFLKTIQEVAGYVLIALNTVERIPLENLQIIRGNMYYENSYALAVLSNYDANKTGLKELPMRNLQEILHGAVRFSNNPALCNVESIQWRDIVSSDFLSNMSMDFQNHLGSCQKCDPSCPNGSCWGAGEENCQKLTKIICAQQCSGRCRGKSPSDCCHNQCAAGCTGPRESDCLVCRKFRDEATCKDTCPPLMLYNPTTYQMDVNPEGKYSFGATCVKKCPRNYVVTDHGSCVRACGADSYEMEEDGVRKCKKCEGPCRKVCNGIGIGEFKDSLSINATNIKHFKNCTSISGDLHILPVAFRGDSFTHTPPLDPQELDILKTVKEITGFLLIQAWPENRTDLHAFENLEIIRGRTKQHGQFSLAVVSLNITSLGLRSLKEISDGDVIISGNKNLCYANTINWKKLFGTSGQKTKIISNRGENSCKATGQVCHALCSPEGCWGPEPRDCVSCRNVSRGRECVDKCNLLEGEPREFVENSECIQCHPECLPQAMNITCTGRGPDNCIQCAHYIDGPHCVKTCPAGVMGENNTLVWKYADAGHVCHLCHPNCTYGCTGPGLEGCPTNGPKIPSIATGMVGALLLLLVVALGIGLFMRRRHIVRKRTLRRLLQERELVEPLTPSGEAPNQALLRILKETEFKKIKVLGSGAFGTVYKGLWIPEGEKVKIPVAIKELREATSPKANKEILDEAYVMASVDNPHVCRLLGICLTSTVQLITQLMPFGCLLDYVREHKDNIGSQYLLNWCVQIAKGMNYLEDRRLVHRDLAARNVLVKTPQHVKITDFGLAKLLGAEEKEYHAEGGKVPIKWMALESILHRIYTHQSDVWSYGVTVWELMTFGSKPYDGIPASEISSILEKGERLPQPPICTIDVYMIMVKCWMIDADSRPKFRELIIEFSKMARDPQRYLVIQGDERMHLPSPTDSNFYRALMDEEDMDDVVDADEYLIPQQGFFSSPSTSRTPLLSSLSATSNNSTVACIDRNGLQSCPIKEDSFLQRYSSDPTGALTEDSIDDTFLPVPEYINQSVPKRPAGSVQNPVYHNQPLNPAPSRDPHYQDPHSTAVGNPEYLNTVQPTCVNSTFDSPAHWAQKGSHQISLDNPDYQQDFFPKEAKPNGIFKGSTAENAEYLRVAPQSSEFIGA
Serine/threonine-protein kinase MAK (Homo sapiens), sequence (P20794 whole entry): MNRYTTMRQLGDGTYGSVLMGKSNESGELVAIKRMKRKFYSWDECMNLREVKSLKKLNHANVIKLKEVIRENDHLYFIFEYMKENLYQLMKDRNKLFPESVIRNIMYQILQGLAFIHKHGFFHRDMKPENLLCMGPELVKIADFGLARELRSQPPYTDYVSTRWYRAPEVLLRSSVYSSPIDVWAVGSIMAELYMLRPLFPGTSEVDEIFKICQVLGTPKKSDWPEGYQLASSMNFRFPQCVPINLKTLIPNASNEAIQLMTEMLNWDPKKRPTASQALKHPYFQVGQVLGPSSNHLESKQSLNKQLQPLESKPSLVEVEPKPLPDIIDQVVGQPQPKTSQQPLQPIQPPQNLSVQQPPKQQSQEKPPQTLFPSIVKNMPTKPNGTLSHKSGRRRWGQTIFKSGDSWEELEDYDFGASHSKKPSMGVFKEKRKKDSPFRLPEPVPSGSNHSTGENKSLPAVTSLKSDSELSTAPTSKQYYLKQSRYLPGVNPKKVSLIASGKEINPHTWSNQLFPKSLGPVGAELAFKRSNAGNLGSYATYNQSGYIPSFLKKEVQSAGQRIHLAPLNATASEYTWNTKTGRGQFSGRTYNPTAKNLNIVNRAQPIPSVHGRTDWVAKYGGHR
Fibroblast growth factor receptor 3 (Homo sapiens), P22607 [G697C], sequence (P22607 whole entry G697C): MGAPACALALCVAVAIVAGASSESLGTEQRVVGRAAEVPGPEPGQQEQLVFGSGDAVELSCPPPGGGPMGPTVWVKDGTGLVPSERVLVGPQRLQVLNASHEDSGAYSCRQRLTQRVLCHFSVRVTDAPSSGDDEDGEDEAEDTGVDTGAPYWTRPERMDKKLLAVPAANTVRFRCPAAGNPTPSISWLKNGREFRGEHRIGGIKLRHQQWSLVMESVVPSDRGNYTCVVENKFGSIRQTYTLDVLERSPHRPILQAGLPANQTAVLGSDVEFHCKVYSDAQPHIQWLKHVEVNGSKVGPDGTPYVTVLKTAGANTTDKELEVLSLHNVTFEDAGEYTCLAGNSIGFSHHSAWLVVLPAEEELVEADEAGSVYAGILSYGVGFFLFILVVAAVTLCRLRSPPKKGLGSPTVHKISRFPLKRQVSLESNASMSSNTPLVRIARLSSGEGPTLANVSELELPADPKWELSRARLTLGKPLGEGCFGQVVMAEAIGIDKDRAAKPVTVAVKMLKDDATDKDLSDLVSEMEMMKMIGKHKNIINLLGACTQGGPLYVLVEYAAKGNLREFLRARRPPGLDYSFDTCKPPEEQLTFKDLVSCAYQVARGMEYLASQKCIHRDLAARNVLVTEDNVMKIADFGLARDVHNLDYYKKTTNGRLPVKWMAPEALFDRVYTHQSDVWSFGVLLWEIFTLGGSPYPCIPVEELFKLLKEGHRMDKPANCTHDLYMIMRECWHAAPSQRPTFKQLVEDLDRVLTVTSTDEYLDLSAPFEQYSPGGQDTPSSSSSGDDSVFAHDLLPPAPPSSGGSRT
Mitogen-activated protein kinase 10 (Homo sapiens), sequence (P53779 whole entry): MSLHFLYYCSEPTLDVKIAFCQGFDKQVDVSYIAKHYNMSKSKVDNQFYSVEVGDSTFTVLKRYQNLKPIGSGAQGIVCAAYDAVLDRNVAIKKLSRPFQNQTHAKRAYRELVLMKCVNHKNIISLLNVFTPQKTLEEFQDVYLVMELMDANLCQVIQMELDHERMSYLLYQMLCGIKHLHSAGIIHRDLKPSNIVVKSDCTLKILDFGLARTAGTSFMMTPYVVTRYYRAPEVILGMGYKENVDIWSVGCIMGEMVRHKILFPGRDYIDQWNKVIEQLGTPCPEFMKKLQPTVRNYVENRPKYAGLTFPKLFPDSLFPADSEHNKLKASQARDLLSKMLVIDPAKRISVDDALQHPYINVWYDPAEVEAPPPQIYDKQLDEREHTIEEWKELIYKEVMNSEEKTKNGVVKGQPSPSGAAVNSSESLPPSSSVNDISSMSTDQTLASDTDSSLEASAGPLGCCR

Compound	residual activity [1] [%]	residual activity [2] [%]	inhibition [3] [%]	residual activity [4] [%]	residual activity [5] [%]	residual activity [6] [%]	residual activity [7] [%]	residual activity [8] [%]	residual activity [9] [%]	residual activity [10] [%]	residual activity [11] [%]	residual activity [12] [%]	residual activity [13] [%]	residual activity [14] [%]	residual activity [15] [%]	residual activity [16] [%]	residual activity [17] [%]	residual activity [18] [%]	residual activity [19] [%]	residual activity [20] [%]	other results
O=C(Nc1cccnn1)N1CC(C/C=C/c2cncc(Oc3ccc(C(F)(F)F)cn3)n2)C1	82	100	-6.78	100	68	79	93	100	60	100	100	100	100	93	100	100	85	87	100	85	inhibition [21]: 1.89%; residual activity [22]: 100%; residual activity [23]: 77%; residual activity [24]: 71%; residual activity [25]: 71%; residual activity [26]: 100%; residual activity [27]: 77%; residual activity [28]: 100%; residual activity [29]: 79%; residual activity [30]: 89%; residual activity [31]: 96%; residual activity [32]: 83%; residual activity [33]: 96%
O=C(Nc1cccnn1)N1CCC(=Cc2cccc(Oc3ccc(C(F)(F)F)cn3)c2)CC1	100	80	29.5	100	94	100	100	100	100	100	100	100	100	100	100	100	73	100	100	100	inhibition [21]: 64.6%; residual activity [22]: 89%; residual activity [23]: 100%; residual activity [24]: 100%; residual activity [25]: 100%; residual activity [26]: 83%; residual activity [27]: 100%; residual activity [28]: 77%; residual activity [29]: 100%; residual activity [30]: 87%; residual activity [31]: 100%; residual activity [32]: 100%; residual activity [33]: 81%
